Laboratory results taken from ChEMBL document CHEMBL5506038, “Discovery of LC-MI-3: A Potent and Orally Bioavailable Degrader of Interleukin-1 Receptor-Associated Kinase 4 for the Treatment of Inflammatory Diseases” (J Med Chem, 2024).
Active and inactive are the calls of the source. No cut-off for these calls is given here.

What was measured:
RAW264.7 [1] = experiment: Effect on IL-6 mRNA expression in LPS-induced mouse RAW264.7 cells at 1 uM pretreated with compound for 1 hr followed by LPS-induction and measured after 6 hrs by RT-PCR analysis; format: functional, cell-based; settings: time 7.0 hrs
Mus musculus [2] = experiment: Anti-inflammatory activity against LPS-induced acute […] injury C57BL/6 mouse model assessed as reduction in TNF-alpha level in BALF at 20 mg/kg, IG pretreated with compound for 12 hrs followed by LPS-induction and measured after 6 hrs by ELISA analysis; format: functional, organism-based; settings: time 18.0 hrs
[3] = molecular target: DNA-binding protein Ikaros (Homo sapiens) (UniProt Q13422); experiment: Induction of IKZF1 degradation in human THP-1 cells upto 10000 nM incubated for 12 hrs by Western blotting analysis; format: cell-based
Sequence of DNA-binding protein Ikaros (Homo sapiens) (Q13422 whole entry): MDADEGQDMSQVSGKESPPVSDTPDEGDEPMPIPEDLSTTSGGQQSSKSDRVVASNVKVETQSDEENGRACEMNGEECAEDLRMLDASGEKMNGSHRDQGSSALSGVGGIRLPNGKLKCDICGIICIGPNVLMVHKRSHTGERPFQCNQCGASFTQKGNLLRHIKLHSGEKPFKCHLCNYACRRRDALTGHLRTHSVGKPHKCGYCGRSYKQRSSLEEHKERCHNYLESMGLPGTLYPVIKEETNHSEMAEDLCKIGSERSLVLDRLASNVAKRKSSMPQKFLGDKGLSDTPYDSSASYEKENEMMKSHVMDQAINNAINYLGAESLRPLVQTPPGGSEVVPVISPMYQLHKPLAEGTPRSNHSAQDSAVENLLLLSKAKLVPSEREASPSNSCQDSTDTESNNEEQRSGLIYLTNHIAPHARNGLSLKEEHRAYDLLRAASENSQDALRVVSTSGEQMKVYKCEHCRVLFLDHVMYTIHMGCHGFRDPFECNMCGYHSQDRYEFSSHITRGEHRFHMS

[4] = Cmax in Sprague-Dawley rat at 2 mg/kg, iv by LC-MS/MS analysis; format: ADME, organism-based; settings: in vivo
[5] = molecular target: Protein cereblon/Interleukin-1 receptor-associated kinase 4 (Homo sapiens, UniProt Q9NWZ3+Q96SW2); experiment: PROTAC activity at IRAK4/CRBN in human PBMC cells assessed as reduction in IRAK4 level at 100 nM incubated for 12 hrs by Western blot analysis; format: cell-based
Sequence of Protein cereblon/Interleukin-1 receptor-associated kinase 4 (Homo sapiens, UniProt Q9NWZ3+Q96SW2) (Q96SW2 whole entry, looked up, one chain of several): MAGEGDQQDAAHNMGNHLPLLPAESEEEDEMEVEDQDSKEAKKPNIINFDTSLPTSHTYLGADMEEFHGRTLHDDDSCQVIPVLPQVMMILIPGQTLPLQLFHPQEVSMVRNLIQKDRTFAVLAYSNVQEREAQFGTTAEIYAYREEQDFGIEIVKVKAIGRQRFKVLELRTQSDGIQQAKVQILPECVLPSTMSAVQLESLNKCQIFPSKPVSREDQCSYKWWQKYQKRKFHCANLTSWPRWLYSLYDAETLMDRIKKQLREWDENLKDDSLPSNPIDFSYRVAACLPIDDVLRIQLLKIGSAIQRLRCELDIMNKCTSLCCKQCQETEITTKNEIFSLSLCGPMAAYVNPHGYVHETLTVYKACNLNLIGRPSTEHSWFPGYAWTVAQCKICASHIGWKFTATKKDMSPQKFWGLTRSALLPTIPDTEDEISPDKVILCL

Mus musculus [6] = experiment: Protection against LPS-induced sepsis in C57BL/6 mouse model assessed as improvement in survival rate at 20 mg/kg, IG measured at 12 hrs; format: functional, organism-based
Mus musculus [7] = experiment: Anti-inflammatory activity in imiquimod-induced C57BL/6 mouse psoriasis model assessed as […] in skin thickness at 20 mg/kg, po administered twice daily measured on day 7 by H and E staining based analysis; format: functional, organism-based; settings: time 7.0 day
RAW264.7 [8] = experiment: Effect on IRAK4 mRNA level in mouse RAW264.7 cells by RT-qPCR analysis; format: functional, cell-based
Mus musculus [9] = experiment: Anti-inflammatory activity in imiquimod-induced C57BL/6 mouse psoriasis model assessed as reduction in dermal inflammatory cell infiltration at 20 mg/kg, po administered twice daily measured for 6 days by H and E staining based analysis; format: functional, organism-based; settings: time 6.0 day
[10] = Tmax in Sprague-Dawley rat at 2 mg/kg, iv by LC-MS/MS analysis; format: ADME, organism-based; settings: in vivo
Mus musculus [11] = experiment: Anti-inflammatory activity against LPS-induced acute […] injury C57BL/6 mouse model assessed as reduction in IL-6 level in BALF at 20 mg/kg, IG pretreated with compound for 12 hrs followed by LPS-induction and measured after 6 hrs by ELISA analysis; format: functional, organism-based; settings: time 18.0 hrs
[12] = Half life in Sprague-Dawley rat at 2 mg/kg, iv by LC-MS/MS analysis; format: ADME, organism-based; settings: in vivo
Mus musculus [13] = experiment: Anti-inflammatory activity against LPS-induced acute […] injury C57BL/6 mouse model assessed as reduction in IL-6 level in lung at 20 mg/kg, IG pretreated with compound for 12 hrs followed by LPS-induction and measured after 6 hrs by RT-PCR analysis; format: functional, organism-based; settings: time 18.0 hrs
[14] = molecular target: Protein cereblon/Interleukin-1 receptor-associated kinase 4 (Mus musculus, UniProt Q8C7D2+Q8R4K2); experiment: PROTAC activity at IRAK4/CRBN in mouse RAW264.7 cells assessed as reduction in IRAK4 level incubated for 12 hrs by Western blot analysis; format: cell-based
Sequence of Protein cereblon/Interleukin-1 receptor-associated kinase 4 (Mus musculus, UniProt Q8C7D2+Q8R4K2) (Q8C7D2 whole entry): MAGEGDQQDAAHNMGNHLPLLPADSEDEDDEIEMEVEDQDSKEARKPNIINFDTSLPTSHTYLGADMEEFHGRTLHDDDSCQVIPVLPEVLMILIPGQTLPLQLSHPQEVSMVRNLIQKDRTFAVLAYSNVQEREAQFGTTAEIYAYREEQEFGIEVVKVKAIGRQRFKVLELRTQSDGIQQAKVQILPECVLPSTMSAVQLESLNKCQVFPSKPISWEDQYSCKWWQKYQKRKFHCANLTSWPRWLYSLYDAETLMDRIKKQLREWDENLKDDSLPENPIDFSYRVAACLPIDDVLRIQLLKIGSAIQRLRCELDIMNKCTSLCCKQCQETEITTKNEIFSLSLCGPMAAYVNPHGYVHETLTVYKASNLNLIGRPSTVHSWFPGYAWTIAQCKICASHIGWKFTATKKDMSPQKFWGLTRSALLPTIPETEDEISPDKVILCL
Sequence of Protein cereblon/Interleukin-1 receptor-associated kinase 4 (Mus musculus, UniProt Q8C7D2+Q8R4K2) (Q8R4K2 whole entry): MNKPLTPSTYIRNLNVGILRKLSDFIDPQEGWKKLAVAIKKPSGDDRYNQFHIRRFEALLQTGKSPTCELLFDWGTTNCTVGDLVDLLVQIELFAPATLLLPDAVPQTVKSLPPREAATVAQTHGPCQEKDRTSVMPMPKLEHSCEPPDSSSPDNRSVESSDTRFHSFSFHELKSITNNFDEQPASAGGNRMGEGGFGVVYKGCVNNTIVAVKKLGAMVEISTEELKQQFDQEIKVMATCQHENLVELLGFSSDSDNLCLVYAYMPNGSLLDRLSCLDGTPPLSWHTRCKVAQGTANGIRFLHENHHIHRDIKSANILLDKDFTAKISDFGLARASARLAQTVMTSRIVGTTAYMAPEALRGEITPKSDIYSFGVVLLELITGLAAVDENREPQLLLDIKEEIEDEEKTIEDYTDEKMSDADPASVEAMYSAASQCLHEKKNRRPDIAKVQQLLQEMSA

RAW264.7 [15] = experiment: Protection against Escherichia coli-induced sepsis in mouse RAW264.7 cells assessed as reduction in IL-6 level at 1 uM pretreated with compound for 6 hrs followed by Escherichia coli-induction and measured after 6 hrs by RT-PCR analysis; format: functional, cell-based; settings: time 12.0 hrs
[16] = molecular target: Sal-like protein 4 (Homo sapiens) (UniProt Q9UJQ4); experiment: Induction of SALL4 degradation in human THP-1 cells upto 10000 nM incubated for 12 hrs by Western blotting analysis; format: cell-based
Sequence of Sal-like protein 4 (Homo sapiens) (Q9UJQ4 whole entry): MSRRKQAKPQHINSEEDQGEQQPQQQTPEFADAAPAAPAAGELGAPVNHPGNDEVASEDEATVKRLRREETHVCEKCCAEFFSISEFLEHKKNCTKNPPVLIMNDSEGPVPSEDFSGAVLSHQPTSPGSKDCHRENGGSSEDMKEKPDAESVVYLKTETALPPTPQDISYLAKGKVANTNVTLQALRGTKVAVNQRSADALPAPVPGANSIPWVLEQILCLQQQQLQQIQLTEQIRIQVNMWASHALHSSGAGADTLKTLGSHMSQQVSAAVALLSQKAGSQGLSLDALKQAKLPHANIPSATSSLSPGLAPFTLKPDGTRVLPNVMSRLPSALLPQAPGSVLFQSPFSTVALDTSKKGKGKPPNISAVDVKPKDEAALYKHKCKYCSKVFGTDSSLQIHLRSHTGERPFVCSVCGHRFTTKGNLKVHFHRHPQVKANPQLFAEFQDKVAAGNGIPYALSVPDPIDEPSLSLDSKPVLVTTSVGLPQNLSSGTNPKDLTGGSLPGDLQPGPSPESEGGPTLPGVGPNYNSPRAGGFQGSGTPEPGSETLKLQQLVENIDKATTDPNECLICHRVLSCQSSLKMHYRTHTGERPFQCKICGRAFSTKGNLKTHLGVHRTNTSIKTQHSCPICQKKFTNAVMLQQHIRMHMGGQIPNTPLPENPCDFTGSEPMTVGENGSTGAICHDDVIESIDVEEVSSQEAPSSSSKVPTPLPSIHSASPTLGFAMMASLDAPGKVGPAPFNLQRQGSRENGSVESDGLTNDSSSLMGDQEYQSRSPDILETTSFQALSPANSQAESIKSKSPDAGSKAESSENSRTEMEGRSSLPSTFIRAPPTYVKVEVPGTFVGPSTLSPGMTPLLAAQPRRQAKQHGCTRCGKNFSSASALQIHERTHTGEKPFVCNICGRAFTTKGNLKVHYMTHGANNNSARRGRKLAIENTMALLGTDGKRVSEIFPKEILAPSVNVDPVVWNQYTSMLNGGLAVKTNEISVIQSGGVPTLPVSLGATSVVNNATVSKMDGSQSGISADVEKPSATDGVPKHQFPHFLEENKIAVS

[17] = Drug metabolism in rat hepatocyte assessed as mono-hydroxylation mediated metabolite formation by LC-MS/MS analysis; format: ADME, cell-based; settings: hepatocytes
[18] = molecular target: T1, Interleukin-1 receptor-associated kinase 4 (Homo sapiens) (UniProt Q9NWZ3); experiment: Inhibition of IRAK4 in human BMDM cells assessed as decrease in TLR4 endocytosis by flow cytometry analysis; format: cell-based
T1 sequence (whole entry): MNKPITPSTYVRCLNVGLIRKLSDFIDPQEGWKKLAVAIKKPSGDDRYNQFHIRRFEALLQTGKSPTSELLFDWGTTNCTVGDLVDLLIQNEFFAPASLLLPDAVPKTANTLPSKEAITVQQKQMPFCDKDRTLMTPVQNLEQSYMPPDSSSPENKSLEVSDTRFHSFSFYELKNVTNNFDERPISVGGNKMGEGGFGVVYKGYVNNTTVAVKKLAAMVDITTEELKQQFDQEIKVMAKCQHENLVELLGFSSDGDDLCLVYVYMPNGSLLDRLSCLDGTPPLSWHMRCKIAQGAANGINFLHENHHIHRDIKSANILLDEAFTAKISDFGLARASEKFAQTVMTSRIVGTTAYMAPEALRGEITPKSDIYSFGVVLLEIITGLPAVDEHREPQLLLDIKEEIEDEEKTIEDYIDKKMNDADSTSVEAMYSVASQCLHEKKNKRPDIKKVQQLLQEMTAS

RAW264.7 [19] = experiment: Effect on TNFalpha mRNA expression in LPS-induced mouse RAW264.7 cells at 1 uM pretreated with compound for 1 hr followed by LPS-induction and measured after 6 hrs by RT-PCR analysis; format: functional, cell-based; settings: time 7.0 hrs
[20] = molecular target: Protein cereblon/Interleukin-1 receptor-associated kinase 4 (Mus musculus) (UniProt Q8C7D2+Q8R4K2); experiment: PROTAC activity at IRAK4/CRBN in mouse BaF3 cells assessed as reduction in IRAK4 level at 100 nM incubated for 12 hrs by Western blot analysis relative to control; format: cell-based; design: scale not given: the % may be the effect or the level left
Sequence of Protein cereblon/Interleukin-1 receptor-associated kinase 4 (Mus musculus) (Q8C7D2 whole entry, looked up): as the sequence (Q8C7D2 whole entry) above
Sequence of Protein cereblon/Interleukin-1 receptor-associated kinase 4 (Mus musculus) (Q8R4K2 whole entry, looked up): as the sequence (Q8R4K2 whole entry) above

Mus musculus [21] = experiment: Anti-inflammatory activity in imiquimod-induced C57BL/6 mouse psoriasis model assessed as improvement in swelling at 20 mg/kg, po administered twice daily measured for 6 days; format: functional, organism-based; settings: time 6.0 day

Activity [3]: inactive | Cmax [4]: 2920 ng/mL | Activity [5]: Active | Tmax [10]: 4.98 min | half-life [12]: 29.2 min | DC50 [14]: 47.4 nM | Activity [16]: inactive | Drug metabolism [17]: Metabolite_Detected | inhibition [18]: Active | Activity [20]: 15%
SMILES: COc1cc(N2CCN(C(=O)CCOCC#Cc3ccc4c(c3)C(=O)N(C3CCC(=O)NC3=O)C4=O)CC2)ccc1NC(=O)c1cccc(-c2ccn[nH]2)n1 (stereo unspecified)
Activity (RAW264.7 [1]): Active | Activity (Mus musculus [2]): Active | Activity (Mus musculus [6]): Active | Activity (Mus musculus [7]): Active | Activity (RAW264.7 [8]): inactive | Activity (Mus musculus [9]): Active | Activity (Mus musculus [11]): Active | Activity (Mus musculus [13]): Active | Activity (RAW264.7 [15]): Active | Activity (RAW264.7 [19]): Active | Activity (Mus musculus [21]): Active
